Laboratory results from patent US20050282818A1, “Ubiquitin ligase inhibitors” (Rigel Pharmaceuticals, Inc., priority 2004, published 2005).

How the values were obtained:
[1] = biological target: APC11/APC2 (Homo sapiens, UniProt Q9NYG5+Q9UJX6); test: APC-11/APC-2 ligase assay (APC auto ubiquitination); assay type: biochemical; conditions: APC assay
In short: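 His-tagged APC was captured on nickel plates with human E1 (5 ng/well), UbcH5c (20 ng/well), APC (100 ng/well) and Flag-ubiquitin (100 ng/well) in a Tris pH 7.6 reaction buffer containing 2.5 mM ATP, for 1 hour at room temperature. Read-out was anti-Flag/HRP chemiluminescence. IC50 was set against a DMSO control, typically from 6 or 8 concentrations.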

[2] = system: ICAM-1 expression in A549 cells; test: ICAM assay (IL-1 induced ICAM-1/CD54 expression in A549 cells); assay type: cell-based, human; conditions: Homo sapiens, A549, ICAM assay
In short: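 Luminescent immunostaining (anti-CD54, then anti-mouse IgG, 1 h) quantifies ICAM-1 on A549 cells induced 4 h at 37° C by IL-1 (4 μl of 25 ng/ml added). Compound is added 1 h before the cytokine to cells plated overnight at 10,000 per well.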

APC11/APC2, sequence (Q9NYG5 whole entry): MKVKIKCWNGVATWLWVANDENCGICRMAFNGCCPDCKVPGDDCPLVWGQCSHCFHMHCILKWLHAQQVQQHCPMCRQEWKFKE
APC11/APC2, sequence (Q9UJX6 whole entry): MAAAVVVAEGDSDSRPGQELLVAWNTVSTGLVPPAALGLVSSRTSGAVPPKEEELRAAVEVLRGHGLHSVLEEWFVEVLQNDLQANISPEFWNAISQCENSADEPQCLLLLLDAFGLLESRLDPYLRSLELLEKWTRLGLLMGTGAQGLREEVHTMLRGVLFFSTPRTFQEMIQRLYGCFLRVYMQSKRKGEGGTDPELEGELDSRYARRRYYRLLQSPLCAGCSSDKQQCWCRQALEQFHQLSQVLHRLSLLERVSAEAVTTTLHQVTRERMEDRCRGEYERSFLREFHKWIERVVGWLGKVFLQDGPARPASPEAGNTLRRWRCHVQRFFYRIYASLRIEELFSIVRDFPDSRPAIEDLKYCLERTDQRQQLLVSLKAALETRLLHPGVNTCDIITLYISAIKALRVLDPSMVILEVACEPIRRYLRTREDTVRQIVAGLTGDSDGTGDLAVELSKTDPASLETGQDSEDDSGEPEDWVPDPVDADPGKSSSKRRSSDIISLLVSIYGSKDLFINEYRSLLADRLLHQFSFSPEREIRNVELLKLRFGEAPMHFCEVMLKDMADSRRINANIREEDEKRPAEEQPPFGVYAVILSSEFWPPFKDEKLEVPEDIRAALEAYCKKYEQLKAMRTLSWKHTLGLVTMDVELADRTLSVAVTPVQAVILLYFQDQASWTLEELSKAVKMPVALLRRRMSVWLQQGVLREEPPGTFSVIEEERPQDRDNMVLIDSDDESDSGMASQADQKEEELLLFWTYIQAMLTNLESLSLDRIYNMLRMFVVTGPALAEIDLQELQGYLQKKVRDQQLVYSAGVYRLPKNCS

Structure (SMILES)	IC50 [1] [µM]	IC50 [2] [µM]
O=[N+]([O-])c1ccc(Sc2cccc3cccnc23)c2nonc12 [compound 5, 8-[(7-Nitro-2,1,3-benzoxadiazol-4-yl)thio]quinoline]	1 to 20	–
O=[N+]([O-])c1ccc(Oc2c(Cl)cc(S(=O)(=O)Nc3cccc4nsnc34)cc2Cl)c(Cl)c1 [compound 73, N-2,1,3-benzothiadiazol-4-yl-3,5-dichloro-4-(2-chloro-4-nitrophenoxy)benzenesulfonamide]	1 to 20	–
O=S(=O)(Nc1cccc2nonc12)c1ccc(Oc2ncc(C(F)(F)F)cc2Cl)cc1 [compound 78, N-2,1,3-benzoxadiazol-4-yl-4-{[3-chloro-5-(trifluoromethyl)pyridin-2-yl]oxy}benzenesulfonamide]	1 to 20	–
O=[N+]([O-])c1ccc(N2CCN(c3cc(C(F)(F)F)ccn3)CC2)c2nonc12 [compound 90, 4-nitro-7-{4-[4-(trifluoromethyl)pyridin-2-yl]piperazin-1-yl}-2,1,3-benzoxadiazole]	1 to 20	–
O=S(=O)(Nc1cccc2nsnc12)c1ccc(Oc2ccccc2)cc1 [compound 94, N-2,1,3-benzothiadiazol-4-yl-4-phenoxybenzenesulfonamide]	1 to 20	–
O=[N+]([O-])c1ccc(N2CCN(c3ncccn3)CC2)c2nonc12 [compound 109, 4-nitro-7-(1,3-(pyrimidin-2-yl)piperazin-1-yl)-2,1,3-benzoxadiazole]	1 to 20	–
O=[N+]([O-])c1ccc(Oc2ccc(S(=O)(=O)Nc3cccc4nonc34)cc2Cl)c(C(F)(F)F)c1 [compound 114, N-2,1,3-benzoxadiazol-4-yl-3-chloro-4-[4-nitro-2-(trifluoromethyl)phenoxy]benzenesulfonamide]	1 to 20	–
N#Cc1ccc(N2CCN(c3ccc([N+](=O)[O-])c4nonc34)CC2)nc1 [compound 121, 6-[4-(7-nitro-2,1,3-benzoxadiazol-4-yl)piperazin-1-yl]nicotinonitrile]	1 to 20	–
Cc1ccc(N2CCN(c3ccc([N+](=O)[O-])c4nonc34)CC2)cc1C [compound 140, 4-[4-(3,4-dimethylphenyl)piperazin-1-yl]-7-nitro-2,1,3-benzoxadiazole]	1 to 20	–
N#CC1(c2ccccc2)CCN(c2ccc([N+](=O)[O-])c3nonc23)CC1 [compound 141, 1-(7-nitro-2,1,3-benzoxadiazol-4-yl)-4-phenylpiperidine-4-carbonitrile]	1 to 20	–
O=C(c1ccc(F)cc1)C1CCN(c2ccc([N+](=O)[O-])c3nonc23)CC1 [compound 142, (4-fluorophenyl)[1-(7-nitro-2,1,3-benzoxadiazol-4-yl)piperidin-4-yl]methanone]	1 to 20	–
CC1CC(C)CN(c2ccc([N+](=O)[O-])c3nonc23)C1 (stereo not shown) [compound 144, 4-(3,5-dimethylpiperidin-1-yl)-7-nitro-2,1,3-benzoxadiazole]	1 to 20	–
Cc1ccc(Cl)cc1N1CCN(c2ccc([N+](=O)[O-])c3nonc23)CC1 [compound 145, 4-[4-(5-chloro-2-methylphenyl)piperazin-1-yl]-7-nitro-2,1,3-benzoxadiazole]	1 to 20	–
O=[N+]([O-])c1ccc(N2CCN(c3ccc(O)cc3)CC2)c2nonc12 [compound 146, 4-[4-(7-nitro-2,1,3-benzoxadiazol-4-yl)piperazin-1-yl]phenol]	1 to 20	–
O=[N+]([O-])c1ccc(N2CCN(c3ncccc3C(F)(F)F)CC2)c2nonc12 [compound 148, 4-nitro-7-{4-[3-(trifluoromethyl)pyridin-2-yl]piperazin-1-yl}-2,1,3-benzoxadiazole]	1 to 20	–
O=[N+]([O-])c1ccc(SCCO)c2nonc12 [compound 150, 2-[(7-nitro-2,1,3-benzoxadiazol-4-yl)thio]ethanol]	–	≥ 20
CCOC(=O)c1cc(C#N)c(C)nc1N1CCN(c2ccc([N+](=O)[O-])c3nonc23)CC1 [compound 153, ethyl 5-cyano-6-methyl-2-[4-(7-nitro-2,1,3-benzoxadiazol-4-yl)piperazin-1-yl]nicotinate]	1 to 20	–
O=[N+]([O-])c1ccc(N2CCC(O)(c3ccc(Cl)cc3)CC2)c2nonc12 [compound 159, 4-(4-chlorophenyl)-1-(7-nitro-2,1,3-benzoxadiazol-4-yl)piperidin-4-ol]	1 to 20	–
COC(=O)c1ccc(NS(=O)(=O)c2ccc(F)c3nonc23)cc1 [compound 167, methyl 4-{[(7-fluoro-2,1,3-benzoxadiazol-4-yl)sulfonyl]amino}benzoate]	–	≥ 20
N#Cc1cccnc1N1CCN(S(=O)(=O)c2ccc(Cl)c3nonc23)CC1 [compound 170, 2-{4-[(7-chloro-2,1,3-benzoxadiazol-4-yl)sulfonyl]piperazin-1-yl}nicotinomtrile]	–	≥ 20

Structure (SMILES)	IC50 [1] [µM]	IC50 [2] [µM]
O=S(=O)(Oc1ccc(N2CCN(S(=O)(=O)c3ccc(Cl)c4nonc34)CC2)cc1)c1ccc(Cl)c2nonc12 [compound 171, 4-{4-[(7-chloro-2,1,3-benzoxadiazol-4-yl)sulfonyl]piperazin-1-yl}phenyl 7-chloro-2,1,3-benzoxadiazole-4-sulfonate]	1 to 20	–
O=S(=O)(c1ccc(Sc2cccc3cccnc23)c2nonc12)N1CCN(c2ncc(C(F)(F)F)cc2Cl)CC1 [compound 177, 8-{[7-({4-[3-chloro-5-(trifluoromethyl)pyridin-2-yl]piperazin-1-yl}sulfonyl)-2,1,3-benzoxadiazol-4-yl]thio}quinoline]	1 to 20	–
COC(=O)c1ccc(NS(=O)(=O)c2c(Cl)ccc3nonc23)cc1 [compound 178, methyl 4-{[(5-chloro-2,1,3-benzoxadiazol-4-yl)sulfonyl]amino}benzoate]	–	≥ 20
N#Cc1ccccc1N1CCN(S(=O)(=O)c2c(Cl)ccc3nonc23)CC1 [compound 180, 2-{4-[(5-chloro-2,1,3-benzoxadiazol-4-yl)sulfonyl]piperazin-1-yl}benzonitrile]	–	≥ 20
O=S(=O)(c1c(N2CCN(c3ccc(Cl)c(C(F)(F)F)c3)CC2)ccc2nonc12)N1CCN(c2ccc(Cl)c(C(F)(F)F)c2)CC1 [compound 181, 5-{4-[4-chloro-3-(trifluoromethyl)phenyl]piperazin-1-yl}-4-({4-[4-chloro-3-(trifluoromethyl)phenyl]piperazin-1-yl}sulfonyl)-2,1,3-benzoxadiazole]	1 to 20	–
O=S(=O)(c1ccc(Cl)c2nonc12)N1CCN(c2ncccn2)CC1 [compound 184, 4-chloro-7-[(4-pyrimidin-2-ylpiperazin-1-yl)sulfonyl]-2,1,3-benzoxadiazole]	–	≥ 20
O=S(=O)(c1ccc(Cl)c2nonc12)N1CCN(c2ccccc2)CC1 [compound 186, 4-chloro-7-[(4-phenylpiperazin-1-yl)sulfonyl]-2,1,3-benzoxadiazole]	–	≥ 20
O=c1[nH]c2ccccc2n1C1CCN(S(=O)(=O)c2ccc(Cl)c3nonc23)CC1 [compound 188, 1-{1-[(7-chloro-2,1,3-benzoxadiazol-4-yl)sulfonyl]piperidin-4-yl}-1,3-dihydro-2H-benzimidazol-2-one]	–	≥ 20
CC1CC(C)CN(S(=O)(=O)c2ccc(Cl)c3nonc23)C1 (stereo not shown) [compound 192, 4-chloro-7-[(3,5-dimethylpiperidin-1-yl)sulfonyl]-2,1,3-benzoxadiazole]	–	≥ 20
O=S(=O)(c1c(Cl)ccc2nonc12)N1CCN(c2cnccn2)CC1 [compound 200, 5-chloro-4-[(4-pyrazin-2-ylpiperazin-1-yl)sulfonyl]-2,1,3-benzoxadiazole]	–	≥ 20
CC(=O)N1CCN(S(=O)(=O)c2c(Cl)ccc3nonc23)CC1 [compound 201, 4-[(4-acetylpiperazin-1-yl)sulfonyl]-5-chloro-2,1,3-benzoxadiazole]	–	≥ 20
Cc1cccc(N2CCN(S(=O)(=O)c3c(Cl)ccc4nonc34)CC2)n1 [compound 202, 5-chloro-4-{[4-(6-methylpyridin-2-yl)piperazin-1-yl]sulfonyl}-2,1,3-benzoxadiazole]	–	≥ 20
N#Cc1ccc(N2CCN(S(=O)(=O)c3c(Cl)ccc4nonc34)CC2)nc1 [compound 209, 6-{4-[(5-chloro-2,1,3-benzoxadiazol-4-yl)sulfonyl]piperazin-1-yl}nicotinonitrile]	–	≥ 20
CC(=O)N1CCN(S(=O)(=O)c2c(Sc3cccc4cccnc34)ccc3nonc23)CC1 [compound 214, 8-({4-[(4-acetylpiperazin-1-yl)sulfonyl]-2,1,3-benzoxadiazol-5-yl}thio)quinoline]	–	≥ 20
O=S(=O)(Nc1ccc2cn[nH]c2c1)c1ccc(Cl)c2nonc12 [compound 220, 7-chloro-N-1 H-indazol-6-yl-2,1,3-benzoxadiazole-4-sulfonamide]	–	≥ 20
O=S(=O)(c1ccc(Sc2ccc(O)cc2)c2nonc12)N1CCC(Oc2ncccn2)CC1 [compound 226, 4-[(7-{[4-(pyrimidin-2-yloxy)piperidin-1-yl]sulfonyl}-2,1,3-benzaxadiazol-4-yl)thio]phenol]	–	≥ 20
O=S(=O)(Nc1ccc(F)c(F)c1)c1ccc(Cl)c2nonc12 [compound 262, 7-chloro-N-(3,4-difluorophenyl)-2,1,3-benzoxadiazole-4-sulfonamide]	–	≥ 20
O=S(=O)(Nc1cccc(F)c1)c1ccc(Cl)c2nonc12 [compound 263, 7-chloro-N-(3-fluorophenyl)-2,1,3-benzoxadiazole-4-sulfonamide]	–	≥ 20
Cc1cc(C)cc(-c2ccc([N+](=O)[O-])c3nonc23)c1 [compound 286, 4-(3,5-Dimethylphenyl)-7-nitro-2,1,3-benzoxadiazole]	1 to 20	–
COc1cccc(-c2ccc([N+](=O)[O-])c3nonc23)c1F [compound 314, 4-(2-Fluoro-3-methoxyphenyl)-7-nitro-2,1,3-benzoxadiazole]	1 to 20	–
